{
  "source": "paper PMC11873239",
  "about": "“A covalent chemical probe for Chikungunya nsP2 cysteine protease with antialphaviral activity and proteome-wide selectivity” (Scientific Reports, 2025)",
  "format_in_all_cases": "binding",
  "key": {"[1]": {"biological_target": "HEK293 cell lysate proteins and CHIKV nsP2 (Homo sapiens, UniProt P31944)", "sequence (P31944 6-242)": "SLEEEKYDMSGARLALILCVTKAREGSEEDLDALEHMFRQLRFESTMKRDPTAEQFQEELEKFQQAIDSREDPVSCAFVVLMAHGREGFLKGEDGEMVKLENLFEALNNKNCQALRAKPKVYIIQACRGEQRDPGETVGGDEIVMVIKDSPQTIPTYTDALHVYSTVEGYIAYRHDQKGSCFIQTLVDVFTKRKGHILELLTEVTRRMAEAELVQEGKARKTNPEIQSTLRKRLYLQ"}, "[2]": {"biological_target": "HEK293 cell lysate proteins and CHIKV nsP2 (Homo sapiens, UniProt Q9NYF8)"}, "[3]": {"biological_target": "HEK293 cell lysate proteins and CHIKV nsP2 (Homo sapiens, UniProt Q86UP2)"}, "[4]": {"biological_target": "HEK293 cell lysate proteins and CHIKV nsP2 (Homo sapiens, UniProt Q5T749)", "sequence (Q5T749 whole entry)": "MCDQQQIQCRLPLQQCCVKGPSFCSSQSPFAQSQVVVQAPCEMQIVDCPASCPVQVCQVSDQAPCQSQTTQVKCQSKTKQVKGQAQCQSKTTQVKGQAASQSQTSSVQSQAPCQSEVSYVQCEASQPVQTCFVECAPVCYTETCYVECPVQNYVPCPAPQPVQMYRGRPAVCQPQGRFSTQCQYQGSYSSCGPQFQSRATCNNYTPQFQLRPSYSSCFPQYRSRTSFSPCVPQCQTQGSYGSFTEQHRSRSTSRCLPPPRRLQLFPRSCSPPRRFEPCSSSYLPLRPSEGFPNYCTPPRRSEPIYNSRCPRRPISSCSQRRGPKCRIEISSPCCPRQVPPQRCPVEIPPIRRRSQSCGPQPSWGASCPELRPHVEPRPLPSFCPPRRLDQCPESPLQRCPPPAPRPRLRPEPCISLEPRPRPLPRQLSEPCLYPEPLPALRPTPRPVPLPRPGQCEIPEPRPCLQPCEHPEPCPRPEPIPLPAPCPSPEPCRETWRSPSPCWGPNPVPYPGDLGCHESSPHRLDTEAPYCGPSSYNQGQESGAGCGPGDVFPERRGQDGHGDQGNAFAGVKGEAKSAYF"}, "[5]": {"biological_target": "HEK293 cell lysate proteins and CHIKV nsP2 (Homo sapiens, UniProt P46013)"}, "[6]": {"biological_target": "HEK293 cell lysate proteins and CHIKV nsP2 (Homo sapiens, UniProt P05089)"}, "[7]": {"biological_target": "HEK293 cell lysate proteins and CHIKV nsP2 (Homo sapiens, UniProt P26368)", "sequence (P26368 whole entry)": "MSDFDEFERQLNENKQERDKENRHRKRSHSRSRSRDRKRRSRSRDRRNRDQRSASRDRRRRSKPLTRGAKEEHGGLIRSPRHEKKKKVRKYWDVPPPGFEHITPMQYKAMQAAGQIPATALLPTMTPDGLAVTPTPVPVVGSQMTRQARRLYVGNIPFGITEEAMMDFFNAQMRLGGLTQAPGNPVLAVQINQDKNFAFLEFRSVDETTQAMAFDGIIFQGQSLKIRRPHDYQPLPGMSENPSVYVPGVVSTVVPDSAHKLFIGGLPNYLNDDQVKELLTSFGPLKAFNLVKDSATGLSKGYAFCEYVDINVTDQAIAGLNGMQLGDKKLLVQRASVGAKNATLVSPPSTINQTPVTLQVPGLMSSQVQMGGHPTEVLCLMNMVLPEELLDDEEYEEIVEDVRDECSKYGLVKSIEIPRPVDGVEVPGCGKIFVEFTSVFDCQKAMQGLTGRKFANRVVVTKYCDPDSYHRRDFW"}, "[8]": {"biological_target": "HEK293 cell lysate proteins and CHIKV nsP2 (Homo sapiens, UniProt Q8TEQ6)"}, "[9]": {"biological_target": "HEK293 cell lysate proteins and CHIKV nsP2 (Homo sapiens, UniProt Q15424)"}, "[10]": {"biological_target": "HEK293 cell lysate proteins and CHIKV nsP2 (Homo sapiens, UniProt P14923)"}, "[11]": {"biological_target": "HEK293 cell lysate proteins and CHIKV nsP2 (Homo sapiens, UniProt P21127)"}, "[12]": {"biological_target": "HEK293 cell lysate proteins and CHIKV nsP2 (Homo sapiens, UniProt P06733)", "sequence (P06733 whole entry)": "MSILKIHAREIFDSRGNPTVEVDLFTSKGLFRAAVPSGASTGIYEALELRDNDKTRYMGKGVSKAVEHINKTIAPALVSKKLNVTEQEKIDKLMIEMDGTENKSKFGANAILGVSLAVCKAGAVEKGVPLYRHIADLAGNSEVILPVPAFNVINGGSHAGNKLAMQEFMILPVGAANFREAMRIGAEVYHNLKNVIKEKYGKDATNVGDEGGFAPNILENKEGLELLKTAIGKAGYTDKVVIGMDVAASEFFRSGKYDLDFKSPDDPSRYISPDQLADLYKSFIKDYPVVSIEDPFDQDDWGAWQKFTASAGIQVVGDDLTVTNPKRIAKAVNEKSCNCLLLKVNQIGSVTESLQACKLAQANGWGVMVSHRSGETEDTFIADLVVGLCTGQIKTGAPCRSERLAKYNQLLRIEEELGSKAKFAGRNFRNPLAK"}, "[13]": {"biological_target": "HEK293 cell lysate proteins and CHIKV nsP2 (Homo sapiens, UniProt P62979)"}, "[14]": {"biological_target": "HEK293 cell lysate proteins and CHIKV nsP2 (Homo sapiens, UniProt P35251)"}, "[15]": {"biological_target": "HEK293 cell lysate proteins and CHIKV nsP2 (Homo sapiens, UniProt Q8NE71)", "sequence (Q8NE71 whole entry)": "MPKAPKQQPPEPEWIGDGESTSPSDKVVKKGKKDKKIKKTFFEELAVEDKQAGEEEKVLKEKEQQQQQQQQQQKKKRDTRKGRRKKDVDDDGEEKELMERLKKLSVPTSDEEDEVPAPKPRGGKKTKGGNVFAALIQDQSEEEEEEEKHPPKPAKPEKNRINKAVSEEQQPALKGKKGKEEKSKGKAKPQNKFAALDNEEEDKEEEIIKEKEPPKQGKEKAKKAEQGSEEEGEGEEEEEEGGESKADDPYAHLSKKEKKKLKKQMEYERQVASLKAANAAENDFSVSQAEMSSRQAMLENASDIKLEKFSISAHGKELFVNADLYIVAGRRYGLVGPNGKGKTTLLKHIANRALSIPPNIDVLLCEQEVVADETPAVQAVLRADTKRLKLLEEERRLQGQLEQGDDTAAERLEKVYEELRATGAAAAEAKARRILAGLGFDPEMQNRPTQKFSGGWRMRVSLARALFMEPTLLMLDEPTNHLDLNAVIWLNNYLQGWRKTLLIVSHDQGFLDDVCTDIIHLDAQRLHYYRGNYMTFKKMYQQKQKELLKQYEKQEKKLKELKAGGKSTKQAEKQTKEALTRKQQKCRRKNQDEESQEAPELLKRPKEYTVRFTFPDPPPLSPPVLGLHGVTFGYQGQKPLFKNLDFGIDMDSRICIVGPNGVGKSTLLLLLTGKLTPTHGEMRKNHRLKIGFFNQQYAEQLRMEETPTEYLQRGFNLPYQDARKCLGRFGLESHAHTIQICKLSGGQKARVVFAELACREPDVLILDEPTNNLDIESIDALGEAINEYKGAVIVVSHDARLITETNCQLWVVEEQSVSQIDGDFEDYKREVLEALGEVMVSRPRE"}, "[16]": {"biological_target": "HEK293 cell lysate proteins and CHIKV nsP2 (Homo sapiens, UniProt P01040)"}, "[17]": {"biological_target": "HEK293 cell lysate proteins and CHIKV nsP2 (Homo sapiens, UniProt Q3YEC7)"}, "[18]": {"biological_target": "HEK293 cell lysate proteins and CHIKV nsP2 (Homo sapiens, UniProt O60524)"}, "[19]": {"biological_target": "HEK293 cell lysate proteins and CHIKV nsP2 (Homo sapiens, UniProt Q9BQG0)"}, "[20]": {"biological_target": "HEK293 cell lysate proteins and CHIKV nsP2 (Homo sapiens, UniProt P07339)"}, "[21]": {"biological_target": "HEK293 cell lysate proteins and CHIKV nsP2 (Homo sapiens, UniProt P31025)"}, "[22]": {"biological_target": "HEK293 cell lysate proteins and CHIKV nsP2 (Homo sapiens, UniProt P25311)", "sequence (P25311 21-298)": "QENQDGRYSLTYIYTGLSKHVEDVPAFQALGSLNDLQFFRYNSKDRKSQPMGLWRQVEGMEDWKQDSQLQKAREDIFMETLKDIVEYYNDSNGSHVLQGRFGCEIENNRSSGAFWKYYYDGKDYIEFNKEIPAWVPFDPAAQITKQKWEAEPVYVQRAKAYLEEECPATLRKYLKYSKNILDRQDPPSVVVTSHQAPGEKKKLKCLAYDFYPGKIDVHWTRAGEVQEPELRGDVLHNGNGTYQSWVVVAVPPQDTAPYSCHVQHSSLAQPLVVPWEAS"}, "[23]": {"biological_target": "HEK293 cell lysate proteins and CHIKV nsP2 (Homo sapiens, UniProt Q5T750)"}, "[24]": {"biological_target": "HEK293 cell lysate proteins and CHIKV nsP2 (Homo sapiens, UniProt P05109)", "sequence (P05109 whole entry)": "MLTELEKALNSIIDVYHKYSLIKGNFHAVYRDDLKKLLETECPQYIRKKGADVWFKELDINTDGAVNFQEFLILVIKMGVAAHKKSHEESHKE"}, "[25]": {"biological_target": "HEK293 cell lysate proteins and CHIKV nsP2 (Homo sapiens, UniProt P22735)"}, "[26]": {"biological_target": "HEK293 cell lysate proteins and CHIKV nsP2 (Homo sapiens, UniProt Q9HCY8)", "sequence (Q9HCY8 whole entry)": "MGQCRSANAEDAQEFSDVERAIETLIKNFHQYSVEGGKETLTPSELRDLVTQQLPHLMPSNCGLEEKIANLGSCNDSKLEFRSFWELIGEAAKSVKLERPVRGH"}, "[27]": {"biological_target": "HEK293 cell lysate proteins and CHIKV nsP2 (Homo sapiens, UniProt P04406)", "sequence (P04406 whole entry)": "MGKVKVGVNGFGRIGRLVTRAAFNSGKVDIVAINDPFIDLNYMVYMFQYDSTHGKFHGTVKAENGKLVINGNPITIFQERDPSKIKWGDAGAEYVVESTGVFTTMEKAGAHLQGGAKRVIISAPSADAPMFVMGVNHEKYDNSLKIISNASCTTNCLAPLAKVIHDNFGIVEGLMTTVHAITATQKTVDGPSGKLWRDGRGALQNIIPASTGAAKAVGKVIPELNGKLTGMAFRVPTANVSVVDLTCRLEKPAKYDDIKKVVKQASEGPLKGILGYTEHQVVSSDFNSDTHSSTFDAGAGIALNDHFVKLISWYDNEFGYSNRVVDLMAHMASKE"}, "[28]": {"biological_target": "HEK293 cell lysate proteins and CHIKV nsP2 (Homo sapiens, UniProt Q01469)"}, "[29]": {"biological_target": "HEK293 cell lysate proteins and CHIKV nsP2 (Homo sapiens, UniProt Q8NI27)", "sequence (Q8NI27 whole entry)": "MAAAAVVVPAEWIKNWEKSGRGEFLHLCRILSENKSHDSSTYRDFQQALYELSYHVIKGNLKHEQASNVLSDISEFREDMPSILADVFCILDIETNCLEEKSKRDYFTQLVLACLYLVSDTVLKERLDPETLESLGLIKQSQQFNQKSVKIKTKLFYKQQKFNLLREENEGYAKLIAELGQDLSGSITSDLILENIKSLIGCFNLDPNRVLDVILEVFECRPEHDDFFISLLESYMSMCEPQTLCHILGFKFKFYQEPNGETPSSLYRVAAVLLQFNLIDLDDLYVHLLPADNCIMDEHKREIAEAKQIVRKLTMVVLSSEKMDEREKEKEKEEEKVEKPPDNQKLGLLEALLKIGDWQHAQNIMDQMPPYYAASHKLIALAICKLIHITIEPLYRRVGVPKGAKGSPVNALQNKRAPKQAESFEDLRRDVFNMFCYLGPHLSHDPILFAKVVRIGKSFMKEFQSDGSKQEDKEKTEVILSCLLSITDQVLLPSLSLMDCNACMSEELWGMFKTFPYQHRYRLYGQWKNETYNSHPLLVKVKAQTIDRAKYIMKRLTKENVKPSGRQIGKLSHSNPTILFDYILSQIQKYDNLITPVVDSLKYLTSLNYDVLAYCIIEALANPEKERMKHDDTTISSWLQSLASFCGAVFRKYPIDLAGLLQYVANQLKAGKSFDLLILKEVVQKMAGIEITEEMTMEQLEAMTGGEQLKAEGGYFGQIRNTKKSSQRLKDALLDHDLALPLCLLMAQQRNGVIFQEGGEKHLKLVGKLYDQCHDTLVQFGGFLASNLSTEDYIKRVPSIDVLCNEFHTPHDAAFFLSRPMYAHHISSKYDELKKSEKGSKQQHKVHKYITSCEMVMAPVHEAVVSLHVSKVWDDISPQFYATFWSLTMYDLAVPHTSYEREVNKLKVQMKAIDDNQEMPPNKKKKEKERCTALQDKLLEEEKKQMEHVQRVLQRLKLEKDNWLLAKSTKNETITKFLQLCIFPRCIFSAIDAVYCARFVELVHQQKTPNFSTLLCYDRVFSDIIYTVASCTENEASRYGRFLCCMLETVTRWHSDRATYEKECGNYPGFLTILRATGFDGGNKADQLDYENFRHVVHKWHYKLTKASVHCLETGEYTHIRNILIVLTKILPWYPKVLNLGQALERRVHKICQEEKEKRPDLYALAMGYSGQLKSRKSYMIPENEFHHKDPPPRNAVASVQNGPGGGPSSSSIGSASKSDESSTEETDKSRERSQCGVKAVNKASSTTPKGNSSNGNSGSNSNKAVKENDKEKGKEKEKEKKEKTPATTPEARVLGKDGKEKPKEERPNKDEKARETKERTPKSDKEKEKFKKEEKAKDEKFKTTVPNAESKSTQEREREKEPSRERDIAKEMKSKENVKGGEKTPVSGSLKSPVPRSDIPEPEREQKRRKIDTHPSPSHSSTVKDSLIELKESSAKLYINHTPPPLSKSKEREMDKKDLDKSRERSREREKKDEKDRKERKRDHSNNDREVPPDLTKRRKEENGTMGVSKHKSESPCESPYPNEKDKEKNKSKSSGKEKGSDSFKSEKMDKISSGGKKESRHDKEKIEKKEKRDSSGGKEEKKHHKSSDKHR"}, "[30]": {"system": "HEK293 cell lysate proteins and CHIKV nsP2", "conditions": "protein nsP2 (nsP2_AA993-AA1333_Tags)"}, "[31]": {"biological_target": "HEK293 cell lysate proteins and CHIKV nsP2 (Homo sapiens, UniProt P12273)"}, "[32]": {"biological_target": "HEK293 cell lysate proteins and CHIKV nsP2 (Homo sapiens, UniProt O60231)"}, "[33]": {"biological_target": "HEK293 cell lysate proteins and CHIKV nsP2 (Homo sapiens, UniProt P81605)"}, "[34]": {"biological_target": "HEK293 cell lysate proteins and CHIKV nsP2 (Homo sapiens, UniProt Q7L014)"}, "[35]": {"biological_target": "HEK293 cell lysate proteins and CHIKV nsP2 (Homo sapiens, UniProt Q14562)"}, "[36]": {"biological_target": "HEK293 cell lysate proteins and CHIKV nsP2 (Homo sapiens, UniProt P06702)"}},
  "note": "Like-named read-outs stand apart in the source and are kept apart here.",
  "data": [
    {"smiles": "C#CCOc1ccccc1-c1cc(C(=O)NC/C=C/S(C)(=O)=O)on1", "note": "[VS, (E)-N-(3-(methylsulfonyl)allyl)−3-(2-(prop-2-yn-1-yloxy)phenyl)isoxazole-5-carboxamide]", "values": [
      {"measurement": "Log2 fold change", "setting": "[1]", "result": 1.29},
      {"measurement": "Log2 fold change", "setting": "[2]", "result": -0.75},
      {"measurement": "Log2 fold change", "setting": "[3]", "result": 0.34},
      {"measurement": "Log2 fold change", "setting": "[4]", "result": 2.53},
      {"measurement": "Log2 fold change", "setting": "[5]", "result": 0.64},
      {"measurement": "Log2 fold change", "setting": "[6]", "result": 1.79},
      {"measurement": "Log2 fold change", "setting": "[7]", "result": -0.62},
      {"measurement": "Log2 fold change", "setting": "[8]", "result": -0.32},
      {"measurement": "Log2 fold change", "setting": "[9]", "result": 1.46},
      {"measurement": "Log2 fold change", "setting": "[10]", "result": 1.97},
      {"measurement": "Log2 fold change", "setting": "[11]", "result": 0.12},
      {"measurement": "Log2 fold change", "setting": "[12]", "result": 1.36},
      {"measurement": "Log2 fold change", "setting": "[13]", "result": 0.71},
      {"measurement": "Log2 fold change", "setting": "[14]", "result": 0.30},
      {"measurement": "Log2 fold change", "setting": "[15]", "result": -0.92},
      {"measurement": "Log2 fold change", "setting": "[16]", "result": 1.75},
      {"measurement": "Log2 fold change", "setting": "[17]", "result": -2.27},
      {"measurement": "Log2 fold change", "setting": "[18]", "result": -0.75},
      {"measurement": "Log2 fold change", "setting": "[19]", "result": -0.66},
      {"measurement": "Log2 fold change", "setting": "[20]", "result": 1.67},
      {"measurement": "Log2 fold change", "setting": "[21]", "result": 1.54},
      {"measurement": "Log2 fold change", "setting": "[22]", "result": 1.43},
      {"measurement": "Log2 fold change", "setting": "[23]", "result": 2.49},
      {"measurement": "Log2 fold change", "setting": "[24]", "result": 1.58},
      {"measurement": "Log2 fold change", "setting": "[25]", "result": 1.60},
      {"measurement": "Log2 fold change", "setting": "[26]", "result": -1.35},
      {"measurement": "Log2 fold change", "setting": "[27]", "result": 1.78},
      {"measurement": "Log2 fold change", "setting": "[28]", "result": 2.38},
      {"measurement": "Log2 fold change", "setting": "[29]", "result": -0.12},
      {"measurement": "Log2 fold change", "setting": "[30]", "result": 1.03},
      {"measurement": "Log2 fold change", "setting": "[30]; sheet nsP2 spike", "result": 7.13},
      {"measurement": "Log2 fold change", "setting": "[31]", "result": 1.00},
      {"measurement": "Log2 fold change", "setting": "[32]", "result": 4.33},
      {"measurement": "Log2 fold change", "setting": "[33]", "result": 1.36},
      {"measurement": "Log2 fold change", "setting": "[34]", "result": -0.13},
      {"measurement": "Log2 fold change", "setting": "[35]", "result": -0.65},
      {"measurement": "Log2 fold change", "setting": "[36]", "result": 1.63}
    ]}
  ]
}
